From US20040092491A1, “Method of treating sepsis-induced ARDS” (The Research Foundation of State University of New York, priority 2002, published 2004)
Entries after “also recorded” stand apart in the source; their conditions may differ.

How the values were obtained:
[1] = Porcine SMA+FC model: BALF protein concentration; set-up: species or system pigs; conditions: pig, in vivo
Excerpt: In addition, the protocol included a 3-day termination period, due to the severity of the ARDS associated with this model and the desire to obtain clinically relevant end-point data on all animals.

[2] = test system: pulmonary edema; test: Rat CLP model: lung water (W/D weight ratio); format: in vivo, Sprague-Dawley rats
Method: (§1) Experimental Protocol: Rats were randomly divided into 5 groups: GROUP 1) Sham CLP+2% solution of carboxymethylcellulose (CMC; vehicle for COL-3) in saline-midline laparotomy with cecum exposed and mesentery sharply incised plus oral gavage at the time of surgery with CMC (n=6); GROUP 2) Sham CLP+COL-3 (Collagenex Pharmaceutical, Newtown, Pa.)-midline laparotomy with cecum exposed and mesentery sharply incised plus oral gavage at the time of surgery with COL-3 (30 mg/kg, n=6); GROUP 3) CLP+CMC-midline laparotomy with CLP plus oral gavage at time of surgery with CMC (n=10); GROUP 4) CLP+COL-3 single dose [SD]-midline laparotomy with CLP plus oral gavage at the time of surgery with COL-3 (30 mg/kg, n=9); GROUP 5) CLP+COL-3 multiple dose [MD]-midline laparotomy with CLP plus oral gavage at the time of surgery and at 24 hours post CLP with COL-3 (30 mg/kg each administration for a total dose of 60 mg/kg, n=15). Rats were followed for 168 hours (7 days) with survival defined as hours post-CLP and survival time of each rat recorded. Rats were sacrificed at 168 hours or immediately following death. At necropsy, the left lung was excised and its bronchus cannulated. The lung was inflated to a pressure of 4 cmH2O with 10% formalin. The cannula was clamped and the lung stored in formalin at room temperature for 24 hours. The tissue was blocked in paraffin and serial sections made for staining with hematoxylin and eosin. Additionally, the remaining paraffin section of fixed lung was used for immunohistochemical determination of MMP-2 and MMP-9.
Lung Water: Representative tissue samples from the right lung were sharply dissected free of nonparenchymal tissue. Samples were placed in a dish and weighed, dried in an oven at 65° C. for 24 h and weighed again. This was repeated until there was no weight change over a 24-h period at which time the samples were determined to be dry. Lung water was expressed as a wet to dry weight ratio (W/D).

[3] = Porcine SMA+FC model: blood COL-3 concentration
[4] = test system: lung tissue; test: Rat CLP model: lung histology; format: in vivo, Sprague-Dawley rats
Method: Surgical Procedure: Male Sprague-Dawley rats weighing between 250-300 g were acclimatized to the laboratory environment for one week prior to surgery. Free access to food and water was available for this time period. Rats were anesthetized with intraperitoneal (IP) Ketamine (90 mg/kg)/Xylazine (10 mg/kg ). Sepsis was produced using a modification of the cecal ligation and puncture (CLP) technique described by Chaudry et al. After the abdominal fur was shaved, a 2 cm midline incision was made through the skin and peritoneum. The cecum was identified and withdrawn through the incision. The avascular portion of the mesentery was sharply incised and the cecum was ligated just below the ileocecal valve with a 3-0 silk suture, so that intestinal continuity was maintained. Using an 18 gauge needle, the cecum was perforated in two locations on the antimesenteric surface and was gently compressed until feces were extruded to ensure patency of the holes. The bowel was then returned to the abdomen and the incision was closed in 2 layers using 3-0 Prolene™ for the muscle and 2-0 silk for the skin. Each rat received 10 cc physiological saline subcutaneously immediately after the procedure and at 12 and 24 hours post-surgery. The rats were allowed to recover with water and food provided ad libitum throughout the remainder of the study.
as §1
Histology: The lung tissue in each slide preparation was evaluated without knowledge of the treatment group from which it came. The slides were reviewed at low magnification for an overview to exclude sections containing bronchi, connective tissue, large blood vessels, and areas of confluent atelectasis, so that only regions reflecting the degree and stage of parenchymal injury would be evaluated. The areas of the slides which were not excluded were assessed at high magnification (400×) in the following manner. Five high power fields (HPF) were randomly sampled. […] Specifically, alveolar wall thickening, defined as greater than two cell layers thick, was graded as “0” (absent) or “1” (present) in each field. Intra-alveolar edema fluid, defined as homogenous or fibrillar proteinaceous staining within the alveoli, was graded as “0” (absent) or “1” (present) in each field. A total score/5HPF for alveolar wall thickening and intra-alveolar edema fluid was recorded for each animal. […]

[5] = test system: neutrophil elastase; test: Porcine SMA+FC model: BALF elastase activity; set-up: species or system pigs; conditions: pig, in vivo
Excerpt: (§2) A sepsis-induced ARDS porcine model was developed. […] In addition, the protocol included a 3-day termination period, due to the severity of the ARDS associated with this model and the desire to obtain clinically relevant end-point data on all animals.

[6] = test system: IL-8; test: Porcine SMA+FC model: IL-8 concentration in BALF; set-up: species or system pigs; conditions: pig, in vivo
Excerpt: as §2

[7] = test system: sepsis-induced ARDS (SMA+FC); test: Porcine fecal clot + SMA clamping sepsis-induced ARDS model: pulmonary function
[8] = biological target: T1, MMP-9 (Sus scrofa, UniProt A0A287AZD5); test: Porcine SMA+FC model: MMP-9 in BALF; set-up: species or system pigs; conditions: pig, in vivo
T1 construct: from tissue; host or cells: pig bronchoalveolar lavage fluid (BALF)
T1 sequence (A0A287AZD5 19-708): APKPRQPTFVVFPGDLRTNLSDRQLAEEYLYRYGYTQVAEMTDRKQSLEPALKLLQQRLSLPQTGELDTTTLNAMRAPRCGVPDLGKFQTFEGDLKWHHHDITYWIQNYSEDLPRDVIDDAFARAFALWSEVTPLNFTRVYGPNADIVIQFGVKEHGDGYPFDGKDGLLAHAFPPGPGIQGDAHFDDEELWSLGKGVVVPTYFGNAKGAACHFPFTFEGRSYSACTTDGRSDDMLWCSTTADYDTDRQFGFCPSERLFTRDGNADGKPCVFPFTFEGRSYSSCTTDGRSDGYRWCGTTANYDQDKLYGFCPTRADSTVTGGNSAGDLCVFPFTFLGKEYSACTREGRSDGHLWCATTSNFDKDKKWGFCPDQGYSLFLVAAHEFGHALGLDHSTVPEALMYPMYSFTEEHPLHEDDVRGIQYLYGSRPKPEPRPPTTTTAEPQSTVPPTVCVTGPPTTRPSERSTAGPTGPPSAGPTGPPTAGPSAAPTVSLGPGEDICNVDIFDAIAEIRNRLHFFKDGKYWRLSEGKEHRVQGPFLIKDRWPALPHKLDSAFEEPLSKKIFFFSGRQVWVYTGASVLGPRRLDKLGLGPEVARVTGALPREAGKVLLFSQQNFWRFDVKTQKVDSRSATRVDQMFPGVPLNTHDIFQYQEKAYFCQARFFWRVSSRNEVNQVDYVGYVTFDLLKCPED
Excerpt: as §2

Compound: NC(=O)C1=C(O)C[C@@H]2C[C@@H]3Cc4cccc(O)c4C(=O)C3=C(O)[C@]2(O)C1=O [COL-3, 6-demethyl-6-deoxy-4-de(dimethylamino)tetracycline]
- Decrease in bronchoalveolarlavage fluid (BALF) protein concentration [1]: 51%
- Lung water (W/D weight ratio) ([2]; CLP+COL-3 (MD), second dose at 24 hours post CLP): reduced edema to Sham CLP levels; also recorded: further reduced
- Lung water (W/D weight ratio) ([2]; CLP+COL-3 (SD) vs CLP+CMC): significantly reduced
- Lung water or edema ([2]; COL-3 administration, dose dependent manner, vs CLP+CMC): significantly reduced
- Blood COL-3 concentration ([3]; Day 1): 3.1 ± 0.3 µg/mL
- Blood COL-3 concentration ([3]; Day 2): 4.9 ± 1.0 µg/mL
- Blood COL-3 concentration ([3]; Day 3): 3.1 ± 1.0 µg/mL
- Number of neutrophils sequestered in the lung ([4]; CLP+COL-3 (MD) vs CLP+CMC): no significant differences
- Number of thickened alveolar walls ([4]; CLP+COL-3 (MD) vs CLP+CMC): significantly reduced
- Intra-alveolar edema fluid ([4]; CLP+COL-3 (MD), second dose, vs CLP+CMC): significant reduction
- Intra-alveolar edema fluid ([4]; CLP+COL-3 (SD) vs CLP+CMC): reduced in the CLP+COL-3 (SD) group as compared to the CLP+CMC group, but was not statistically significant
- Number of neutrophils sequestered in the lung ([4]; CLP+COL-3 (SD) vs CLP+CMC): no significant differences
- Number of thickened alveolar walls ([4]; CLP+COL-3 (SD) vs CLP+CMC): significantly reduced
- Neutrophil elastase in BALF [5]: inhibited
- Reduction in BALF elastase activity [5]: 87%
- Increase in IL-8 concentration in BALF [6]: blocked the increase
- Improvement in A-a gradient ([7]; SMA+FC+COL-3 vs SMA+FC group): 64%
- Improvement in lung plateau pressure ([7]; SMA+FC+COL-3 vs SMA+FC group): 52%
- Improvement in pulmonary compliance ([7]; SMA+FC+COL-3 vs SMA+FC group): 344%
- Increase in PaO2/FiO2 ratio ([7]; SMA+FC+COL-3 vs SMA+FC group): 204%
- Reduction in pulmonary shunt fraction ([7]; SMA+FC+COL-3 vs SMA+FC group): 80%
- Development of ARDS ([7]; lung compliance, PaO2/FiO2 ratio, shunt fraction, lung water, histology not significantly different from Control Group): completely prevented
- MMP-9 in BALF [8]: inhibited
